Measured values as given in ChEMBL document CHEMBL1201862, “PubChem BioAssay data set” (2004).
The source made the active and inactive calls.

Tests used:
[1] = target: DNA dC->dU-editing enzyme APOBEC-3A (Homo sapiens, UniProt P31941); experiment: Dose Response confirmation of small molecule APOBEC3A DNA Deaminase Inhibitors via a fluorescence-based single-stranded DNA deaminase assay. [Related pubchem assays (depositor defined):AID493011, AID493024]; type: functional
[2] = target: DNA dC->dU-editing enzyme APOBEC-3G (Homo sapiens, UniProt Q9HC16); type: functional;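 also: Dose-response counterscreen measuring inhibition of APOBEC3G DNA deaminase activity, run while confirming APOBEC3A inhibitors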
[3] = target: T1, Voltage-gated N-type calcium channel alpha-1B subunit/Amyloid beta A4 precursor protein-binding family A member 1 (Homo sapiens, UniProt Q00975+Q02410); experiment: disruptors of Mint-PDZ/N-type channel peptide interaction – biochemical, HTRF, SAR follow-up (AID 2489); type: functional
T1 sequence (Q00975 whole entry): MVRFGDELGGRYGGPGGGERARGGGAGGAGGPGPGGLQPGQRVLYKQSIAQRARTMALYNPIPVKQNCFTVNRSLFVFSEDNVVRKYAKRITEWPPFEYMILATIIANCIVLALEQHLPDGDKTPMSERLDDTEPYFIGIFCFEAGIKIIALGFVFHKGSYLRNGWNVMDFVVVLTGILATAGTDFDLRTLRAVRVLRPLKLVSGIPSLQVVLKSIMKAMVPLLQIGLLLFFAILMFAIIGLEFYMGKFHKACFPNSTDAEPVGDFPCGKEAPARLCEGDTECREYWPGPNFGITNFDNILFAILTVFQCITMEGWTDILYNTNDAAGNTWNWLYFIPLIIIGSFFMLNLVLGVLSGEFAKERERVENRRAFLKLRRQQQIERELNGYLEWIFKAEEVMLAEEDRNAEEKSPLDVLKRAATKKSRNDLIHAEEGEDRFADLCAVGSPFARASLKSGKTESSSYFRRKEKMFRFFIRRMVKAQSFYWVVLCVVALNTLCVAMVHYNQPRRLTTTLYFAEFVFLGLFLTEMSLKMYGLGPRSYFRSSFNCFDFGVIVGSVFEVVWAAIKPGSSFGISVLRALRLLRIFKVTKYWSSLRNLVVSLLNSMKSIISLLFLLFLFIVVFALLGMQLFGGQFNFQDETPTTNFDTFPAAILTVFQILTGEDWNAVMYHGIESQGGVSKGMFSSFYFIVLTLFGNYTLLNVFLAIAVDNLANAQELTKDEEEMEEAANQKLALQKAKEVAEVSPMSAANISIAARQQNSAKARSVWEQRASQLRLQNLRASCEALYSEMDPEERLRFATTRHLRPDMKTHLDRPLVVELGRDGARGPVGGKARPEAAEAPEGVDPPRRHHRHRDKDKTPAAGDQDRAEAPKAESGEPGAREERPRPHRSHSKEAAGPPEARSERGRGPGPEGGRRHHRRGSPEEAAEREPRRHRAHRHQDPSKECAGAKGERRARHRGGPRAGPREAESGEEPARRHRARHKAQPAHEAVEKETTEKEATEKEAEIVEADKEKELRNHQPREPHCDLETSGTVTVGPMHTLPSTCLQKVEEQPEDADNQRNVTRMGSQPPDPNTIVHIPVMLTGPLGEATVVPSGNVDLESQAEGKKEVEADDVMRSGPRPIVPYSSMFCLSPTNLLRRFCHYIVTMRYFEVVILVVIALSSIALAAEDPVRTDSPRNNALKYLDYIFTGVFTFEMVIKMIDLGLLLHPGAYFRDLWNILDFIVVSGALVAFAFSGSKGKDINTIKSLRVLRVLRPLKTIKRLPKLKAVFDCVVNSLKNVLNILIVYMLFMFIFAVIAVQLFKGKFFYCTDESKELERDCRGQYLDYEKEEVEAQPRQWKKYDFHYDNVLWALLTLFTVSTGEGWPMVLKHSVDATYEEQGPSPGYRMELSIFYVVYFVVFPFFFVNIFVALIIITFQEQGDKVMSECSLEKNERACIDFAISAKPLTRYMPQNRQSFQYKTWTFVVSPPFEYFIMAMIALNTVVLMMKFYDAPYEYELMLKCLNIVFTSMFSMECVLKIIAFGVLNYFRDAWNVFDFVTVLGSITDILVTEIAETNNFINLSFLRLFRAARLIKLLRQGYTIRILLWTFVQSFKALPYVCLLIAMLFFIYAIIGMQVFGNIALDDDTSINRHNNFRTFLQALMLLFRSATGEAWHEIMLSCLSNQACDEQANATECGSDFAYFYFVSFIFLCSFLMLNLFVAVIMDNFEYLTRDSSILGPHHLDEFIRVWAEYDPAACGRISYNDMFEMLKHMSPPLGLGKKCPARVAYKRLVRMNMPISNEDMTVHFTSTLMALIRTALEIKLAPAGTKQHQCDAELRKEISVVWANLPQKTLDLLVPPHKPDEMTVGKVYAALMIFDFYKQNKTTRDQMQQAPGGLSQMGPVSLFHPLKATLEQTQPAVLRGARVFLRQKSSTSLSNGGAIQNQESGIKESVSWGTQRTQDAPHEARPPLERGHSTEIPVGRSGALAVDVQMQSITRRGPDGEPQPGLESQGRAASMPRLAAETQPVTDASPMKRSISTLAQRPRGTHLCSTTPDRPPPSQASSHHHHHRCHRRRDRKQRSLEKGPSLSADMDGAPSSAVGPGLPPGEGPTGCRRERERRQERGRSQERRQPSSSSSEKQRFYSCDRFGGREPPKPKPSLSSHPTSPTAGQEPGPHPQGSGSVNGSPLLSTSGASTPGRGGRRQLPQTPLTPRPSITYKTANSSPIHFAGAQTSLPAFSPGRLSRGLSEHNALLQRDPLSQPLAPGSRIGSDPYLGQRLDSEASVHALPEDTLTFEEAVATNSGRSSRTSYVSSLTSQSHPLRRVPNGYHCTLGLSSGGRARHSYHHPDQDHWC
T1 sequence (Q02410 whole entry): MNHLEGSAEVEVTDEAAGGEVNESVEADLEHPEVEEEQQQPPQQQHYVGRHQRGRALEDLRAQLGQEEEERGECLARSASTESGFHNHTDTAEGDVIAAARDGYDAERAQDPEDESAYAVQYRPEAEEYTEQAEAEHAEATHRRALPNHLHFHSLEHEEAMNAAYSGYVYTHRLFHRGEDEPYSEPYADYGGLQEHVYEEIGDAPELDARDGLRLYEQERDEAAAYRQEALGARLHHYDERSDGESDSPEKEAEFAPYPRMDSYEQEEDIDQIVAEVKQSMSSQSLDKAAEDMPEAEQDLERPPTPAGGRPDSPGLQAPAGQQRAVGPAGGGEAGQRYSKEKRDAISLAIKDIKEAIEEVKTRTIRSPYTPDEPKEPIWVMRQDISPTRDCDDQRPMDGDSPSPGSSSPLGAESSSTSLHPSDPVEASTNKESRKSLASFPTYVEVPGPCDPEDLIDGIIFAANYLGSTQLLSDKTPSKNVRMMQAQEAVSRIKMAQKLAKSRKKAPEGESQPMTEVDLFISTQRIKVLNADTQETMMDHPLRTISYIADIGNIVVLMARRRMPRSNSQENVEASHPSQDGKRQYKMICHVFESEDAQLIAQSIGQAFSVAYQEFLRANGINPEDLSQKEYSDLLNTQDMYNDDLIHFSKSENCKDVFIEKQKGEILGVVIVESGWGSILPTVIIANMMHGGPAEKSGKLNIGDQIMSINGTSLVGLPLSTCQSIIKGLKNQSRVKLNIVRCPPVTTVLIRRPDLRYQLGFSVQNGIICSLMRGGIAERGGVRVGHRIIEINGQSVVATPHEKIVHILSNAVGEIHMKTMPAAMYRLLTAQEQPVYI

[4] = target: T1, Voltage-gated N-type calcium channel alpha-1B subunit/Amyloid beta A4 precursor protein-binding family A member 1; experiment: disruptors of Mint-PDZ/N-type channel peptide interaction – biochemical, HTRF, set 2, SAR follow-up (AID 434980); type: functional
[5] = luciferase reporter signal suppression in cells – H4 neuroglioma cells, luminescence, dose response (AID 1990); type: functional, cell-based
cells = type: functional, cell-based
[6] = target: T2, Heat shock factor protein 1 (Mus musculus, UniProt P38532); experiment: decrease of HSF1-responsive luciferase luminescence – cell-based, NIH3T3, dose retest, confirmation (AID 2382); type: functional;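 also: NIH3T3 fibroblasts with HSF1-driven luciferase reporter stressed by proteasome inhibitor MG132; luminescence from HSF1-driven luciferase expression after 8 hours of MG132 stress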
T2 sequence (P38532 whole entry): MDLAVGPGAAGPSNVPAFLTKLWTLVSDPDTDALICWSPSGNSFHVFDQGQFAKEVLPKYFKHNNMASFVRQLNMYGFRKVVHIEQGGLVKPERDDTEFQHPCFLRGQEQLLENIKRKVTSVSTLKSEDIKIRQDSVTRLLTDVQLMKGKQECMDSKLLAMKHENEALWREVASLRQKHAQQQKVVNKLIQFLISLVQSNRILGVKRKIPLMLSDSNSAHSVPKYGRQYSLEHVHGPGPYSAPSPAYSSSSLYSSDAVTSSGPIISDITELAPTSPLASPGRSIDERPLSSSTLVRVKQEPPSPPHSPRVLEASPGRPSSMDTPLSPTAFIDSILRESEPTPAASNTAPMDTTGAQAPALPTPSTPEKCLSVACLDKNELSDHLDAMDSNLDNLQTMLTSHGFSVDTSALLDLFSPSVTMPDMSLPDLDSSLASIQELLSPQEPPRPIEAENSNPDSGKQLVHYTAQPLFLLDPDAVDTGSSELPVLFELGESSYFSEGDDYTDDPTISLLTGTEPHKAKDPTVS

[7] = luciferase reporter signal reduction – luminescence, H4-C neuroglioblastoma cells, dose response (AID 2458); type: functional, cell-based;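 also: H4 neuroglioblastoma cells stably carrying a luciferase reporter gene fusion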
[8] = target: Luciferin 4-monooxygenase (Photinus pyralis, UniProt P08659); experiment: Counter Screen for Luciferase-based Assay Positives. [Related pubchem assays: 620, 618, 411 ]
[9] = alpha-synuclein stem-loop luciferase translation blockers – H4 neuroglioma cells, luminescence, confirmation (AID 1988); type: functional, cell-based
[10] = HEK-293T viability loss after treatment – luminescence, T-cell screen hits, cytotoxicity control for TCR NF-kB inhibitor project, dose response (AID 489026); type: functional, cell-based;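 also: cells exposed to compound about 14 hours before the viability readout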
[11] = target: E3 ubiquitin-protein ligase Mdm2/Protein Mdm4 (Homo sapiens, UniProt O15151+Q00987); experiment: disruption of Mdm2/MdmX protein binding – luminescence detection, dose response (AID 504593); type: functional
Chain of E3 ubiquitin-protein ligase Mdm2/Protein Mdm4 (Q00987 whole entry): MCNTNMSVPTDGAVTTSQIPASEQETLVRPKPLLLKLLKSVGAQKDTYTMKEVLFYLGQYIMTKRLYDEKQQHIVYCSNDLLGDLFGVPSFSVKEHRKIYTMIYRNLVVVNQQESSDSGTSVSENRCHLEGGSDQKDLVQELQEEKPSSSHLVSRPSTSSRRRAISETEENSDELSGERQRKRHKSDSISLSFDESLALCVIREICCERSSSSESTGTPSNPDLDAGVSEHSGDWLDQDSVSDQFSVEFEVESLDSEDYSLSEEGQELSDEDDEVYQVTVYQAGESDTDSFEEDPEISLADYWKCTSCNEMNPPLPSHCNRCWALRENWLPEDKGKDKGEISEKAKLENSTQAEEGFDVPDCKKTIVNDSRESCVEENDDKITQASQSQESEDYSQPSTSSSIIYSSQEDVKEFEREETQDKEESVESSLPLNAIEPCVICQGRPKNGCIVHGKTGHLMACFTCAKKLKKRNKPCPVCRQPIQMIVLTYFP
Chain of E3 ubiquitin-protein ligase Mdm2/Protein Mdm4 (O15151 whole entry): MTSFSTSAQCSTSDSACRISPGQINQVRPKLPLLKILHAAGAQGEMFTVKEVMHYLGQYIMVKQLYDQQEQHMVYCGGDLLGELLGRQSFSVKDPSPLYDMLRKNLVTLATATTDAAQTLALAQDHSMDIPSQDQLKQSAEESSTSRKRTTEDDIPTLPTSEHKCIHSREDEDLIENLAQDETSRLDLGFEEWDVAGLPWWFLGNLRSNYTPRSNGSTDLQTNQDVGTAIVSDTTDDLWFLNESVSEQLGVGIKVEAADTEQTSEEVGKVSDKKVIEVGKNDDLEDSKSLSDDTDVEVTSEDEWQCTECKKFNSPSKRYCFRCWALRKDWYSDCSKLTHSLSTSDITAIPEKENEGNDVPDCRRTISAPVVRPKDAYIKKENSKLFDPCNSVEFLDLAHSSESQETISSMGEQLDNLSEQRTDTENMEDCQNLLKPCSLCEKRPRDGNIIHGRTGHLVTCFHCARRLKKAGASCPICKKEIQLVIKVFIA

HT-1080 = experiment: HT1080 cell viability loss – fluorescence readout (AID 620); type: functional, cell-based; details: Homo sapiens
[12] = Luminescence Cell-Based Dose Response HTS to Identify Inhibitors of 5'UTR Stem-Loop Driven Prion Protein mRNA Translation in H4 Neuroglioblastoma Cells. [Related pubchem assays: 1827 (Project Summary), 1813 (Primary HTS)]; type: functional
[13] = alpha-synuclein stem-loop translation blockers – luminescence, H4 neuroglioblastoma cells, dose confirmation, confirmation (AID 2454); type: functional, cell-based;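 also: H4 neuroglioblastoma cells carrying an alpha-synuclein 5'UTR luciferase reporter; potency for inhibition of the luciferase signal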
HEK293 = experiment: EBV LMP1 TES2 canonical NF-kB signalling blockers – cell-based, HEK293, luciferase, cherry-pick, dose response (AID 588343); type: functional; details: Homo sapiens
[14] = target: T3, Microphthalmia-associated transcription factor (Homo sapiens, UniProt O75030); experiment: reducers of TRPM1 reporter luminescence, concentration series – cell-based, SK-MEL-5, cherry-picked, set 3, MITF inhibitor project, dose response (AID 493073); type: functional;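 also: SK-MEL-5 melanoma cells with luciferase driven by the MITF target TRPM1 promoter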
T3 sequence (O75030 whole entry): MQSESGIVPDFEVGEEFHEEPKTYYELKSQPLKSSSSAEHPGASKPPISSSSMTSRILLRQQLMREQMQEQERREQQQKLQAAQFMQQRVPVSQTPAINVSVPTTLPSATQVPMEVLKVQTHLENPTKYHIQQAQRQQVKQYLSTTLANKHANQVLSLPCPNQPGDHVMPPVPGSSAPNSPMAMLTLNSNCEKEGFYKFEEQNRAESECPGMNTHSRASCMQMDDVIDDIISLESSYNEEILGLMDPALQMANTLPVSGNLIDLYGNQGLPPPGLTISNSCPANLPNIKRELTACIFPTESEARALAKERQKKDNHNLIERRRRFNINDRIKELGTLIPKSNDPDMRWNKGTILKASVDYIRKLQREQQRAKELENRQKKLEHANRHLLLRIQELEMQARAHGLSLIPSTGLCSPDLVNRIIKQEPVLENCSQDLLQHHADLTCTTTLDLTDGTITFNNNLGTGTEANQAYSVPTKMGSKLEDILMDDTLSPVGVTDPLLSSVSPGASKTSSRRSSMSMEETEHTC

[15] = target: Cyclin-dependent kinase 5/CDK5 activator 1 (Homo sapiens, UniProt Q00535); experiment: blockade of human CDK5 activity – biochemical, cherry-picked samples, set 2, dose response (AID 504545)
[16] = ADP-Glo luciferase signal interference – biochemical, luminescence, cherry-picked samples, set 2, artefact control for CDK5 inhibitor project, dose response (AID 504546); type: functional, cell-based
CAAX prenyl protease 2 = CAAX prenyl protease 2 (Saccharomyces cerevisiae S288c, UniProt Q03530); type: biochemical
[17] = target: T4, Carboxy-terminal domain RNA polymerase II polypeptide A small phosphatase 1 (Homo sapiens, UniProt Q9GZU7); experiment: CTDSP1 inhibitors, concentration-response, biochemical, absorbance readout, ultra-high-throughput screen actives (AID 540297); type: functional
T4 sequence (Q9GZU7 whole entry): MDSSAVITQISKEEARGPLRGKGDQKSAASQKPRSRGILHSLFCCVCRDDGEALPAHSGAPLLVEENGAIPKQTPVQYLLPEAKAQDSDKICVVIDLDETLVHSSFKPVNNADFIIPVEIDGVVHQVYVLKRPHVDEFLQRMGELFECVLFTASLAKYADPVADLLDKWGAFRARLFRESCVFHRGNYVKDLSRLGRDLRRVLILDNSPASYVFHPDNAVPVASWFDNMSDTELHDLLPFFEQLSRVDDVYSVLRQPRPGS

Genome polyprotein = Genome polyprotein (dengue virus type 2, UniProt P29990); experiment: flavivirus cap methylation enzyme inhibition – biochemical, confirmation dose response, primary screen (AID 588689); type: functional
[18] = target: Envelope glycoprotein gp160 (Human immunodeficiency virus 1, UniProt Q6QLK5); experiment: cell-free HIV fusion peptide-binding blockers – biochemical, uHTS, fluorescence dequenching, […] (AID 1986)
Chain of Envelope glycoprotein gp160 (Q6QLK5 whole entry, the tested form may be a part): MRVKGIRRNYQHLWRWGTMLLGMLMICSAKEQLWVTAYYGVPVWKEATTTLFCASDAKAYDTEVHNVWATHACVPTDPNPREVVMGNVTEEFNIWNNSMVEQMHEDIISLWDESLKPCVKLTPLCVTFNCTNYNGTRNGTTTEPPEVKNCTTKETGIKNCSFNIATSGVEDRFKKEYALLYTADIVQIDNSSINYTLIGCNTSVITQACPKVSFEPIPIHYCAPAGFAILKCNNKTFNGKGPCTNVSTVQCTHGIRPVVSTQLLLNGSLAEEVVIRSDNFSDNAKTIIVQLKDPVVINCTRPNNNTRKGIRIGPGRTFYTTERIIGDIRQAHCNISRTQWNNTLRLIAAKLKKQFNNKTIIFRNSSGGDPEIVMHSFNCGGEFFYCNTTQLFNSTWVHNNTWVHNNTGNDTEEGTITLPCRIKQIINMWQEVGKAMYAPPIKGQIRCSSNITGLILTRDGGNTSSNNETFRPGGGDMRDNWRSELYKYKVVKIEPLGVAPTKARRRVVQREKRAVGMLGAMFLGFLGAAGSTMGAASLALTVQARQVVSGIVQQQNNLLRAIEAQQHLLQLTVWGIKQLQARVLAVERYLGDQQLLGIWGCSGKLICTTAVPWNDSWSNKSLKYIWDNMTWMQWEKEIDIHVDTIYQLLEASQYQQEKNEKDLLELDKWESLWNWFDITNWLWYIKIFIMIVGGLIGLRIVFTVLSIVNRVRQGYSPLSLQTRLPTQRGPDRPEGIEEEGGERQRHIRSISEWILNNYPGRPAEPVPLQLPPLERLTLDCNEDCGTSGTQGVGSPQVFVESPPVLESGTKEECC

[19] = target: T5, Alkaline phosphatase, tissue-nonspecific isozyme (Homo sapiens, UniProt P05186); experiment: potency against alkaline phosphatase TNAP – biochemical, luminescent, dose response, SAR follow-up (AID 1056)
T5 sequence (P05186 whole entry): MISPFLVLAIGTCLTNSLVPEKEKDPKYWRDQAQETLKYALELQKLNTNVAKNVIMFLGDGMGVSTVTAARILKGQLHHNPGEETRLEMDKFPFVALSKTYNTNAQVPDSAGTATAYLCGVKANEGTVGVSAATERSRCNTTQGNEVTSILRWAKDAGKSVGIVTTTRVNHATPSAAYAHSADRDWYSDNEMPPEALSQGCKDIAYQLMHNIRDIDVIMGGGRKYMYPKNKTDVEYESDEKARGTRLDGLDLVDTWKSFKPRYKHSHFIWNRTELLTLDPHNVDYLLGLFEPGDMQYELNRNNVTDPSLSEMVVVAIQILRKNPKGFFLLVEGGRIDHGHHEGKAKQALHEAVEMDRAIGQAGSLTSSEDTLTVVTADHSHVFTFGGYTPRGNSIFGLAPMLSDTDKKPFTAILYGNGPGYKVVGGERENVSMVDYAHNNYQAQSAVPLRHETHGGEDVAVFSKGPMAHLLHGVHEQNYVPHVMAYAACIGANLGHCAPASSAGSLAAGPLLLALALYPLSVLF

[20] = target: Glyceraldehyde-3-phosphate dehydrogenase (Homo sapiens, UniProt P04406)
[21] = target: Alkaline phosphatase, placental type (Homo sapiens, UniProt P05187); experiment: human placental alkaline phosphatase inhibition – biochemical, luminescence, confirmation (AID 1512); type: functional
Large T antigen = Large T antigen (Simian virus 40, UniProt P03070); type: functional, Betapolyomavirus macacae;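 also: Confirmatory-stage PubChem screen for compounds that inhibit SV40 T antigen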
Aminopeptidase N = target: T6, Aminopeptidase N (Plasmodium falciparum FcB1/Columbia, UniProt O96935); experiment: malaria alanyl aminopeptidase activity blockers – biochemical, fluorogenic H-Leu-NHMec substrate, 1536-well (AID 1445); design: species or system Plasmodium falciparum 3D7, 3D7
T6 sequence (O96935 whole entry): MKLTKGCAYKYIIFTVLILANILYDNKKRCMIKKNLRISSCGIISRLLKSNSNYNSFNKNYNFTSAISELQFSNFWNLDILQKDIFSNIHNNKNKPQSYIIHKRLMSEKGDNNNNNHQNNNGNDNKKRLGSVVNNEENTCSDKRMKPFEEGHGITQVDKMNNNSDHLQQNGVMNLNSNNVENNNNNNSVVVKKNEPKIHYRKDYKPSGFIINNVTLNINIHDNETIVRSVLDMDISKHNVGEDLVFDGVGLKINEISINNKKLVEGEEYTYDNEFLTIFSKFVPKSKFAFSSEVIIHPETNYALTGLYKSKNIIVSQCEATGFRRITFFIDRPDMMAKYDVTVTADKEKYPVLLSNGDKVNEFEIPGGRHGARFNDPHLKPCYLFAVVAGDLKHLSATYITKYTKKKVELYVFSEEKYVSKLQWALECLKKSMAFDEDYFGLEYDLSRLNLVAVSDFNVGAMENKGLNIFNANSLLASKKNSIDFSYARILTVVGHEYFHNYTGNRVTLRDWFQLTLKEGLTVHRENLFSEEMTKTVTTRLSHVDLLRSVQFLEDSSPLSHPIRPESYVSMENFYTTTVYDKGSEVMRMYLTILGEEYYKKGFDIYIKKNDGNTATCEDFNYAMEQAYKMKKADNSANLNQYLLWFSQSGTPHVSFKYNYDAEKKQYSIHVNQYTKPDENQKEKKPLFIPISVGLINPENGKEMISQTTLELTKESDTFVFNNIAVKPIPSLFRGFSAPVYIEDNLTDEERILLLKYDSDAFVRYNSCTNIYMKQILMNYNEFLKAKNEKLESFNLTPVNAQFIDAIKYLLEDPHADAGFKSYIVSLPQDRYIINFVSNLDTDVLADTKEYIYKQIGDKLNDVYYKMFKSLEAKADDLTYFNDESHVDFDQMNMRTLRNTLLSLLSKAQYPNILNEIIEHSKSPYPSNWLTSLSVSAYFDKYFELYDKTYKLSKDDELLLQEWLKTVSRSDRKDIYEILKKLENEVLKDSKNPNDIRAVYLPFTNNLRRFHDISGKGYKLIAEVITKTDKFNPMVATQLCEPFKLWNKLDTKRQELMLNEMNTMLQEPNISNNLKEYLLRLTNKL

[22] = target: T7, Probable nicotinate-nucleotide adenylyltransferase (Staphylococcus aureus (strain N315), UniProt P65502); type: functional, Staphylococcus aureus subsp. aureus N315;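 as to IC50 Mean: confirmatory dose-response retesting of NadD inhibitor hits first found in an ultra-high-throughput screen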
[23] = target: T7, Probable nicotinate-nucleotide adenylyltransferase; type: functional, Staphylococcus aureus subsp. aureus N315; details: read-out: IC50_Mean
[24] = HPDE-C7 pancreatic duct cell viability loss – fluorescence, HTS (AID 430); type: functional, cell-based; details: Homo sapiens
[25] = viability loss of HPDE-C7K cells – cell-based, fluorescence, HTS, primary screen (AID 431); type: functional; details: Homo sapiens

## COc1ccc(C)cc1NC(=O)CCCN1C(=O)NC(C)(C)C1=O
[1]
  IC50: 11 µM (active)
[2]
  IC50: 11.9 µM (active)

## CC12C=CC(C)(O1)C1C(=O)N(c3ccc4c(c3)OCO4)C(=O)C12 (stereo not drawn)
[3]
  IC50: > 56.8 µM (inactive)
[4]
  IC50: > 56.8 µM (inactive)

## O=C(NCCc1cccc(Cl)c1)c1cc(-c2ccco2)nc2ccccc12
[3]
  IC50: > 56.8 µM (inactive)
[4]
  IC50: > 56.8 µM (inactive)

## COCCn1c(C)cc(C2=NN=C(Nc3ccccc3F)SC2)c1C
[5]
  EC50: 8.18 µM (active)
cells
  EC50: > 12 µM (not active)
[6]
  EC50: < 0.16 µM (active)
[7]
  EC50: 1.3 µM (active)
[8]
  EC50: 2.67 µM (active)
[9]
  EC50: < 0.1 µM (active)
[10]
  IC50: > 80 µM (inactive)
[11]
  IC50: 1.33 µM (active)
HT-1080
  EC50: > 50 µM (not active)
[12]
  EC50: < 0.1 µM (active)
[13]
  EC50: 1.69 µM (active)

## N=C(NOC(=O)c1ccccc1)c1ccccn1
HEK293
  AC50: 8.6 µM (active)
[14]
  AC50: 11.9 µM (active)
[15]
  AC50: 20.6 µM (active)
[16]
  AC50: 37.5 µM (active)

## C[C@@]12CCC=C[C@H]1[C@H](c1ccc(/C=C/c3ccccc3)cc1F)N(Cc1ccccc1)C2=O
CAAX prenyl protease 2
  AC50: 45.9 µM (active)

## O=C(O)CCN1C(=O)/C(=C2\C(=O)N(Cc3ccc(F)cc3)c3ccccc32)SC1=S
[17]
  IC50: 3.03 µM (active)
Genome polyprotein
  IC50: 41.2 µM (active)
[18]
  IC50: > 99 µM (inactive)

## Cc1n[nH]c2c1C(=O)CC(C)(C)C2
[19]
  IC50: 19.9 µM (active)
[20]
  IC50: > 100 µM (not active)
[21]
  IC50: > 100 µM (inactive)

## COCc1cc(C)nc(SCC(=O)c2ccc(O)c(O)c2)c1C#N
Large T antigen
  IC50: 3.71 µM (active)
[21]
  IC50: 2.16 µM (active)

## CCc1nnc(NS(=O)(=O)c2ccc(NC(=S)NC(=O)/C=C/c3ccc(F)cc3)cc2)s1
Aminopeptidase N
  IC50: 76.7 µM (active)
Genome polyprotein
  IC50: 39.3 µM (active)
[22]
  IC50: 4.58 µM (active)
[18]
  IC50: 18.3 µM (active)
[23]
  IC50: 45.4 µM (active)

## COc1ccc2c(c1)C1(Nc3ccccc3-c3nc4ccccc4n31)C(=O)N2C (stereo not drawn)
[24]
  EC50: > 20 µM (not active)
[11]
  IC50: 2.85 µM (active)
[25]
  EC50: > 20 µM (not active)
